The test system of one assay is Ovariectomized rats. The assay can be described thus: Vaginal keratinization test on ovariectomized rats (Example C.2). The settings on record: estradiol undecylate induced keratinization, per os once daily on days 1-3, active dose = 50% of rats show complete suppression; for minimal effective dose: Rattus norvegicus, po, read-out: LAD (lowest active dose). It counts as in vivo. An outline of the steps: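 Ovariectomized rats given s.c. estradiol undecylate (100 μg per 100 g body weight in sesame oil), then oral compound once daily on days 1-3 (vehicle PEG 200). Vaginas assessed histologically one day after last dose; lowest active dose (mg/kg) is the dose giving complete keratinization suppression in 50% of rats.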

In assay [1] the test system is metabolism of retinoic acid in human breast cancer cells. Briefly: Inhibition of retinoic acid (RA) metabolism (Example C.1). It counts as cell-based. Particulars: MCF-7 human breast cancer cells, 3H-RA as substrate, concentration needed to reduce the amount of metabolites to 50% of the control. Summed up:
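MCF-7 cells, pre-stimulated with RA the day before, incubated with ³H-RA substrate and test compound in 1% DMSO. Polar ³H-metabolites separated from unmetabolized RA and counted by scintillation. IC50 is the concentration cutting metabolite formation to 50% of control, with blank run alongside.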

Molecules are shown by their SMILES.

Usually IC50 stands for the concentration that inhibits the measured activity by half.

Regarding `CC(C)C(c1ccc(NC(=O)CSc2ccccc2)cc1)n1ccnc1` (racemic) [Compound 223], in the assay with Ovariectomized rats, the “LAD (lowest active dose)” value worked out at 5.00 mg/kg. The IC50 in assay [1] turned out to be 1.2 nM.

As to `CC(C)C(c1ccc(NC(=O)c2ccnc3ccccc23)cc1)n1ccnc1` (racemic) [Compound 227], the “LAD (lowest active dose)” value with Ovariectomized rats was more than 10.00 mg/kg. In addition, the IC50 in assay [1] came out at 7.8 nM.

With `CC(C)C(c1ccc(NC(=O)c2ccc[nH]c2=O)cc1)n1ccnc1` (racemic) [Compound 228], in the assay on Ovariectomized rats, the “LAD (lowest active dose)” value is listed as more than 10.00 mg/kg. Also, the IC50 in assay [1] stood at 73 nM.

For the compound `CC(C)C(c1ccc(NC(=O)c2cccc3c2OCCO3)cc1)n1ccnc1` (racemic) [Compound 230], in the assay with Ovariectomized rats, the “LAD (lowest active dose)” value is listed as more than 10.00 mg/kg. In addition, the IC50 in assay [1] is 3.89 nM.

As to `COc1ccc(C(=O)Nc2ccc(C(C(C)C)n3ccnc3)cc2)cc1OC` (racemic) [Compound 231], the “LAD (lowest active dose)” value in the assay with Ovariectomized rats is given as more than 10.00 mg/kg. Further, the IC50 in assay [1] worked out at 1.86 nM.

As to `CC(C)C(c1ccc(NC(=O)c2ccc3c(c2)OCO3)cc1)n1ccnc1` (racemic) [Compound 232], the “LAD (lowest active dose)” value in the assay with Ovariectomized rats is more than 10.00 mg/kg. Moreover, in assay [1], the IC50 stood at 1.51 nM.

For the compound `CC(C)C(c1ccc(NC(=O)c2cccc3nccnc23)cc1)n1ccnc1` (racemic) [Compound 233], the “LAD (lowest active dose)” value in the assay on Ovariectomized rats is more than 10.00 mg/kg. The IC50 in assay [1] worked out at 2.43 nM.

Regarding `CC(C)C(c1ccc(NC(=O)Cc2ccco2)cc1)n1ccnc1` (racemic) [Compound 235], the “LAD (lowest active dose)” value in the assay with Ovariectomized rats is given as 5.00 mg/kg. Besides, the IC50 in assay [1] was determined as 6.94 nM.

On to `CC(C)C(c1ccc(NC(=O)C(C)(C)O)cc1)n1ccnc1` (racemic) [Compound 236], for which the “LAD (lowest active dose)” value in the assay on Ovariectomized rats is given as 5.00 mg/kg. Besides, the IC50 in assay [1] was 98.4 nM.

Take `CC(C)C(c1ccc(NC(=O)CC2COc3ccccc3O2)cc1)n1ccnc1` (racemic) [Compound 237]: in the assay with Ovariectomized rats, the “LAD (lowest active dose)” value worked out at 5.00 mg/kg. In addition, the IC50 in assay [1] is 18.2 nM.

In the case of `CC(C)C(c1ccc(NC(=O)c2ccc(-c3ccccc3)cc2)cc1)n1ccnc1` (racemic) [Compound 238], in the assay with Ovariectomized rats, the “LAD (lowest active dose)” value was found to be 5.00 mg/kg. The IC50 in assay [1] is more than 100 nM.

In the case of `CC(C)C(c1ccc(NC(=O)CSc2ccncc2)cc1)n1ccnc1` (racemic) [Compound 239], in the assay with Ovariectomized rats, the “LAD (lowest active dose)” value came out at 10.00 mg/kg. Moreover, the IC50 in assay [1] came to 0.728 nM.

Take `CC(C)C(c1ccc(NC(=O)Cc2ccc3ccccc3c2)cc1)n1ccnc1` (racemic) [Compound 240]: the “LAD (lowest active dose)” value in the assay on Ovariectomized rats turned out to be 10.00 mg/kg. Further, the IC50 in assay [1] was 1.34 nM.

Regarding `CC(C)C(c1ccc(NC(=O)c2cnc3ccccc3c2)cc1)n1ccnc1` (racemic) [Compound 241], the “LAD (lowest active dose)” value in the assay on Ovariectomized rats is listed as 10.00 mg/kg. In addition, the IC50 in assay [1] was 2.59 nM.

For `Cc1noc(C)c1C(=O)Nc1ccc(C(C(C)C)n2ccnc2)cc1` (racemic) [Compound 242], in the assay on Ovariectomized rats, the “LAD (lowest active dose)” value is reported as more than 10.00 mg/kg. Also, the IC50 in assay [1] is 2.82 nM.

On to `CC(C)C(c1ccc(NC(=O)C2CSc3ccccc3O2)cc1)n1ccnc1` (racemic) [Compound 243], for which, in the assay with Ovariectomized rats, the “LAD (lowest active dose)” value came to 10.00 mg/kg. For the same compound, the IC50 in assay [1] came to 35.9 nM.

On to `CC(C)C(c1ccc(NC(=O)Cc2cccs2)cc1)n1ccnc1` (racemic) [Compound 244], for which the “LAD (lowest active dose)” value with Ovariectomized rats was 10.00 mg/kg. The IC50 in assay [1] is 2.3 nM.

In the case of `CC(C)C(c1ccc(NC(=O)Cc2ccsc2)cc1)n1ccnc1` (racemic) [Compound 245], the “LAD (lowest active dose)” value in the assay on Ovariectomized rats is reported as 10.00 mg/kg. Also, the IC50 in assay [1] turned out to be 2.79 nM.

In the case of `CC(C)C(c1ccc(NC(=O)Cc2cccc3ccccc23)cc1)n1ccnc1` (racemic) [Compound 246], in the assay on Ovariectomized rats, the “LAD (lowest active dose)” value came to 10.00 mg/kg. For the same compound, in assay [1], the IC50 was 2.1 nM.

Regarding `CC(C)C(c1ccc(NC(=O)Cc2ccccn2)cc1)n1ccnc1` (racemic) [Compound 247], in the assay with Ovariectomized rats, the “LAD (lowest active dose)” value was 10.00 mg/kg. Further, in assay [1], the IC50 was 35.5 nM.

Regarding `CC(C)C(c1ccc(NC(=O)c2ccc3c(c2)C(C)(C)CCC3(C)C)cc1)n1ccnc1` (racemic) [Compound 252], the “LAD (lowest active dose)” value with Ovariectomized rats is more than 10.00 mg/kg. In addition, in assay [1], the IC50 was determined as 2.59 nM.

As for `CC(C)C(c1ccc(NC(=O)C2=Cc3ccccc3OC2)cc1)n1ccnc1` (racemic) [Compound 254], the “LAD (lowest active dose)” value in the assay on Ovariectomized rats is given as more than 5.00 mg/kg. The IC50 in assay [1] turned out to be 6.47 nM.

`CC(C)C(c1ccc(NC(=O)Cc2ccc3c(c2)OCCO3)cc1)n1ccnc1` (racemic) [Compound 255]: the “LAD (lowest active dose)” value in the assay with Ovariectomized rats was found to be 5.00 mg/kg. Besides, the IC50 in assay [1] came to 6.24 nM.

For the compound `CC(C)C(c1ccc(NC(=O)Cc2ccc3c(c2)C(C)(C)CCC3(C)C)cc1)n1ccnc1` (racemic) [Compound 256], the “LAD (lowest active dose)” value with Ovariectomized rats is on record as more than 2.50 mg/kg. In addition, the IC50 in assay [1] amounted to 3.2 nM.

Take `CC(C)C(c1ccc(NC(=O)CNC(=O)c2ccccc2)cc1)n1ccnc1` (racemic) [Compound 261]: the “LAD (lowest active dose)” value in the assay with Ovariectomized rats is listed as more than 10.00 mg/kg. Also, in assay [1], the IC50 is 2.22 nM.

As to `CC(C)C(c1ccc(NC(=O)CNC(=O)OCc2ccccc2)cc1)n1ccnc1` (racemic) [Compound 262], in the assay on Ovariectomized rats, the “LAD (lowest active dose)” value came out at 20.00 mg/kg. Moreover, in assay [1], the IC50 was determined as 7.48 nM.

In the case of `CC(C)C(c1ccc(NC(=O)N(C)Cc2ccccc2)cc1)n1ccnc1` (racemic) [Compound 263], the “LAD (lowest active dose)” value in the assay with Ovariectomized rats is more than 10.00 mg/kg. Also, the IC50 in assay [1] came to 4.66 nM.

As to `CC(C)C(c1ccc(NC(=O)CC2(CC(=O)O)CCCC2)cc1)n1ccnc1` (racemic) [Compound 264], the “LAD (lowest active dose)” value in the assay with Ovariectomized rats is more than 10.00 mg/kg. In addition, the IC50 in assay [1] came out at 2.71 nM.

For the compound `CC(C)C(c1ccc(NC(N)=O)cc1)n1ccnc1` (racemic) [Compound 266, (±)-4-[1-(1H-imidazol-1-yl)-2-methylpropyl]phenylurea], the minimal effective dose in the assay on Ovariectomized rats was more than 10 mg/kg. The IC50 in assay [1] (MCF7) stood at 31.1 nM.

For the compound `CC(C)NC(=O)Nc1ccc(C(C(C)C)n2ccnc2)cc1` (racemic) [Compound 268], the “LAD (lowest active dose)” value in the assay with Ovariectomized rats was more than 10.00 mg/kg. Further, the IC50 in assay [1] stood at 7.79 nM.

For `CC(C)C(c1ccc(NC(=O)Nc2cccnc2)cc1)n1ccnc1` (racemic) [Compound 270], the “LAD (lowest active dose)” value in the assay with Ovariectomized rats is more than 10.00 mg/kg. In assay [1], the IC50 was 5.61 nM.

As to `CC(C)C(c1ccc(NC(=O)Nc2cnccn2)cc1)n1ccnc1` (racemic) [Compound 271], the “LAD (lowest active dose)” value in the assay on Ovariectomized rats was 10.00 mg/kg. Further, the IC50 in assay [1] is 2.45 nM.

With `CC(C)C(c1ccc(NC(=O)Nc2cccc3ccccc23)cc1)n1ccnc1` (racemic) [Compound 272], the “LAD (lowest active dose)” value in the assay with Ovariectomized rats is more than 10.00 mg/kg. The IC50 in assay [1] was 4.81 nM.

As for `CC(C)C(c1ccc(NC(=O)Nc2ccccn2)cc1)n1ccnc1` (racemic) [Compound 274, (±)-N-(2-pyridinyl)-N′-[4-[1-(1H-imidazol-1-yl)-2-methylpropyl]phenyl]urea], the minimal effective dose in the assay with Ovariectomized rats was more than 10 mg/kg. The IC50 in assay [1] (MCF7) is 6.64 nM.

For `CC(C)C(c1ccc(NC(=O)Nc2ccncc2)cc1)n1ccnc1` (racemic) [Compound 275], in the assay with Ovariectomized rats, the “LAD (lowest active dose)” value is on record as more than 10.00 mg/kg. Moreover, the IC50 in assay [1] amounted to 4.28 nM.

On to `CC(C)C(c1ccc(NC(=O)Nc2ccc3c(c2)OCCO3)cc1)n1ccnc1` (racemic) [Compound 276], for which, in the assay on Ovariectomized rats, the “LAD (lowest active dose)” value is more than 10.00 mg/kg. In assay [1], the IC50 stood at 16 nM.

In the case of `CC(C)C(c1ccc(NC(=O)Nc2nc3ccccc3n2C)cc1)n1ccnc1` (racemic) [Compound 277], the “LAD (lowest active dose)” value with Ovariectomized rats is more than 5.00 mg/kg. Also, in assay [1], the IC50 amounted to 1.17 nM.

As to `O=C(Cc1ccc(Cl)cc1)Nc1ccc(C(c2ccc(Cl)cc2)n2ccnc2)cc1` (racemic) [Compound 356], in the assay with Ovariectomized rats, the “LAD (lowest active dose)” value is given as more than 10.00 mg/kg. Further, the IC50 in assay [1] is more than 100 nM.

As to `CC(c1ccc(NC(=O)Cc2ccc(Cl)cc2)cc1)n1ccnc1` (racemic) [Compound 358], in the assay with Ovariectomized rats, the “LAD (lowest active dose)” value is recorded as more than 10.00 mg/kg. Besides, the IC50 in assay [1] is more than 100 nM.

`CC(C)CC(c1ccc(NC(=O)Cc2ccc(Cl)cc2)cc1)n1ccnc1` (racemic) [Compound 359]: in the assay with Ovariectomized rats, the “LAD (lowest active dose)” value was more than 10.00 mg/kg. In addition, the IC50 in assay [1] stood at 6.25 nM.

For the compound `CC(C)(C)CC(c1ccc(NC(=O)Cc2ccc(Cl)cc2)cc1)n1ccnc1` (racemic) [Compound 360], the “LAD (lowest active dose)” value with Ovariectomized rats was 2.50 mg/kg. Besides, the IC50 in assay [1] worked out at 1.08 nM.

On to `CCC(C)C(c1ccc(NC(=O)Cc2ccc(Cl)cc2)cc1)n1ccnc1` (racemic) [Compound 364], for which the “LAD (lowest active dose)” value with Ovariectomized rats is on record as 2.50 mg/kg. Moreover, the IC50 in assay [1] is 1.41 nM.

For `CCCC(CCC)C(c1ccc(NC(=O)Cc2ccc(OC)c(OC)c2)cc1)n1ccnc1` (racemic) [Compound 378], the “LAD (lowest active dose)” value in the assay on Ovariectomized rats amounted to 2.50 mg/kg. Also, in assay [1], the IC50 is 1.74 nM.

`COCC(C)C(c1ccc(NC(=O)Cc2ccc(OC)c(OC)c2)cc1)n1ccnc1` (racemic) [Compound 404, (±)-(A)-3,4-dimethoxy-N-[4-[1-(1H-imidazol-1-yl)-3-methoxy-2-methylpropyl]phenyl]benzeneacetamide]: in the assay on Ovariectomized rats, the “LAD (lowest active dose)” value was 5.00 mg/kg. Besides, the IC50 in assay [1] was determined as 1.35 nM.

As to `C/C(=C\c1ccccc1)C(=O)N(C)c1ccc(C(C(C)C)n2ccnc2)cc1` (racemic) [Compound 421], the “LAD (lowest active dose)” value in the assay on Ovariectomized rats is given as more than 10.00 mg/kg. In addition, the IC50 in assay [1] is more than 100 nM.

Consider `CCN(C(=O)/C(C)=C/c1ccccc1)c1ccc(C(C(C)C)n2ccnc2)cc1` (racemic) [Compound 422], for which the “LAD (lowest active dose)” value with Ovariectomized rats was more than 10.00 mg/kg. For the same compound, the IC50 in assay [1] is more than 10 nM.
